The values that follow come from article PMC11009648, “Development of an orally bioavailable mSWI/SNF ATPase degrader and acquired mechanisms of resistance in prostate cancer” (Proceedings of the National Academy of Sciences of the …, 2024).

Assay [1] concerns VCaP castration-resistant tumor model. Kind of assay: CRPC-VCaP xenograft efficacy study. Type of assay: in vivo. The settings on record: castrated CB17 SCID mice; enzalutamide 10 mg/kg oral gavage five times weekly; AU-24118 15 mg/kg oral gavage three times weekly. Here is the method: Six-week-old CB17 (male) SCID mice were obtained from the breeding colony at the U-M. For all studies, tumors were measured two or three times per week using digital calipers, and tumor volumes were calculated using the formula (π/6) (L × W2), where L is length and W is width of the tumor. At study endpoint, mice were killed, and tumors were extracted and weighed. […] Once tumors grew to a palpable size (~400 mm^3), the mice were physically castrated. Once those tumors regained their precastration size, mice were then randomized and treated with either 15 mg/kg AU-24118 or vehicle by oral gavage 3 d per week with or without enzalutamide (10 mg/kg) by oral gavage 5 d per week for 4 wk.
IHC was performed on 4 µm formalin-fixed, paraffin-embedded tissue sections using BRG1 (SMARCA4), AR, FOXA1, ERG and C-Myc. The IHC process was performed on the Ventana ULTRA automated slide staining system using the Omnimap and Ultraview Universal DAB detection kit. The antibody details are provided in SI Appendix, Table S1. The following commercial kits from Roche-Ventana Medical System were used: Discovery CC1 (Cat No. 950-500), Discovery CC2 (Cat No. 950-123), OptiView Universal DAB Detection Kit (Cat No. 760-700), and OmniMap Universal DAB Detection Kit (Cat No. 760-149).
The TUNEL and In Situ Cell Death Detection Kits (TMR Red #12156792910; Roche Applied Science) were used to examine apoptosis, following the manufacturer’s instructions. Briefly, fixed sections were permeabilized with Triton X-100 and then washed in phosphate-buffered saline. Labeling was carried out at 37 °C for 60 min by addition of a reaction buffer that contained enzymes. A Zeiss Axiolmager M1 microscope was used to obtain images.

Assay [2] concerns 22Rv1-wild type (WT) cells. Kind of assay: CellTiter-Glo cell viability assay in 22Rv1 wild type cells. Type of assay: cell-based, human. The settings on record: 22Rv1 WT. Here is the method: (§1) Cells were seeded onto 96-well plates in appropriate culture media and allowed to adhere overnight prior to treatment. The next day, a nine-point serial dilution of the compounds was prepared and added to the plates. After treatment, the cells were then incubated for an additional 5 d. On the last day of treatment, the CellTiter-Glo cell viability assay (Promega) was then executed in accordance with the manufacturer’s guidelines. The signal (luminescence) from each well was determined using an Infinite M1000 Pro plate reader (Tecan). Relative viability was determined by dividing the signal from each well by the average of the control condition in each experiment. Finally, the data were analyzed and plotted using GraphPad Prism.
In general terms: Cellular ATP, detected with luciferase, serves as a proxy for viable cell number.

The subject of a further assay is 22Rv1 AUR-3 cells. In words: CellTiter-Glo cell viability assay in AU-15330-resistant 22Rv1 AUR-3 cells (ABCB1 overexpression). Type of assay: cell-based, human. Particulars: for IC50: 22Rv1 AUR-3.
Excerpt: (§2) The rising importance of the mSWI/SNF complex as a therapeutic target and the success ([32], [33]) of developing next-generation PROTAC degraders targeting the mSWI/SNF complex prompted us to proactively study potential resistance mechanisms that cancer cells may develop in response to this class of compounds. To achieve this, we cultured 22Rv1 cells in either DMSO or a lethal dose of AU-15330 for 1 mo, refreshing the drug twice a week, until resistant cells emerged. Upon obtaining a population of resistant cells, we unbiasedly characterized the genomic and transcriptomic alterations using whole-exome sequencing and bulk RNA sequencing (RNA-seq), respectively (Fig. 3A).
as §1

Assay [3] relates to SMARCA4, PBRM1 and SMARCA2 in 22Rv1-AUR-3 xenografts. In words: 22Rv1-AUR-3 xenograft pharmacodynamics study. The settings on record: 5 d; AU-15330 60 mg/kg retro-orbital; zosuquidar 10, 20 or 40 mg/kg i.p.
Method: (§3) Lysates were prepared using radioimmunoprecipitation assay buffer (Thermo Fisher) with cOmpleteTM protease inhibitor cocktail tablets (Sigma-Aldrich) added. Total protein for each sample was determined using the DC Protein Assay (Bio-Rad) according to the manufacturer’s instructions. A standardized quantity of protein was resolved using NuPAGE Tris-Acetate Protein Gel (3 to 8%) (Thermo Fisher) or NuPAGE Bis-Tris Protein Gel (4 to 12%) (Thermo Fisher) and probed with primary antibodies as indicated. Following incubation with secondary antibodies conjugated with horseradish peroxidase, membranes were imaged on an Odyssey Fc Imager (LiCOR Biosciences).
For the 22Rv1-AUR-3 model, bilateral subcutaneous dorsal flank tumors were established by injecting 1 × 10^6 cells suspended in a 1:1 mixture of serum-free medium and Matrigel (BD Biosciences). Once tumors reached an average volume of 100 mm^3, mice were randomized and treated with either 60 mg/kg AU-15330 by retro-orbital vein injection 3 times every other day and with or without 10 mg/kg, 20 mg/kg, or 40 mg/kg of zosuquidar by intraperitoneal injection daily for 5 d per week. […] Animals harboring tumors approaching that size were immediately killed. All in vivo studies were approved by the U-M IACUC.
The subject of assay [4] is VCaP castration-resistant tumor model. The arrangement: method as in PMID 34937944. Particulars: VCaP CRPC model, AU-15330 60 mg/kg; not an arm of this study; cited from earlier work.
A further assay has as its system 22Rv1 AUR-2 cells. Kind of assay: CellTiter-Glo cell viability assay in AU-15330-resistant 22Rv1 AUR-2 cells (SMARCA4 mutation). Type of assay: cell-based, human. Particulars: dose-response (Fig. S4C).
Excerpt: as §2
Cells were seeded onto 96-well plates in appropriate culture media and allowed to adhere overnight prior to treatment. The next day, a nine-point serial dilution of the compounds was prepared and added to the plates. After treatment, the cells were then incubated for an additional 5 d. […] The signal (luminescence) from each well was determined using an Infinite M1000 Pro plate reader (Tecan). Relative viability was determined by dividing the signal from each well by the average of the control condition in each experiment. Finally, the data were analyzed and plotted using GraphPad Prism.

In assay [5] the test system is SMARCA4, SMARCA2 and PBRM1 in 22Rv1 AUR-2 cells. In words: Immunoblot of target degradation in 22Rv1 AUR-2 cells. Type of assay: cell-based, human. The settings on record: 4 h, AU-15330 1 µM, AU-24118 0.1 µM. A general note: In western blotting, separated proteins are transferred to a membrane and probed.
Method: as §3
Assay [6] has as its system mutant forms of SMARCA4 in HEK293 cells. Kind of assay: Immunoblot of overexpressed flag-tagged mutant SMARCA4 in HEK293 cells. Type of assay: cell-based, human. Particulars: 24 h treatment. The text has this:
GFP-SMARCA4 (Addgene, 65391) was used for the SMARCA4 mutation clone. The pLVX-TetOne-Puro-hAXL (Addgene, 124797) backbone was used as a starting point prior to undergoing a series of modifications. The endogenous target gene was removed, and a multiple cloning site (MCS) was inserted downstream of the endogenous promoter. Custom gblocks containing Flag-tagged WT SMARCA4 were synthesized (Integrated DNA Technologies, IDT) and inserted into the MCS. Subsequently, custom gblocks containing SMARCA4-N1540S, SMARCA4-I1551del, or SMARCA4-F1485S were inserted to replace the respective portion of WT SMARCA4. Finally, the TRE3G promoter was replaced with hPGK.
HEK293 cells were seeded overnight and transfected with Lipofectamine 3,000 (Thermo Fisher) according to the manufacturer’s protocol. Media were changed 8 h post transfection and incubated for 48 h prior to conducting further analyses.

The mark [7] stands for this setting: Fig. 4G/H, 5 d, without zosuquidar.
Where [8] appears, read: Homo sapiens, 22Rv1, 120 h, Fig. 4G/H, 5 d, without zosuquidar.
Where [9] appears, read: Homo sapiens, 22Rv1, Fig. S6A, siABCB1.
Setting [10] is: Homo sapiens, 22Rv1, Fig. S6A, siNT (negative control).

As for `CNC(=O)c1ccc(N2C(=S)N(c3ccc(C#N)c(C(F)(F)F)c3)C(=O)C2(C)C)cc1F` [Enzalutamide, enzalutamide, reference compound], the tumor response result in assay [1] is “moderate tumor growth inhibition”.
What is called IC50 is the concentration needed to halve the response being measured. Read a high IC50 as weaker potency in that assay. For the molecule `Cc1cc([C@H](C(=O)N2C[C@H](O)C[C@H]2C(=O)N[C@@H](CC(=O)N2CCC(N3CCC(C#Cc4ccc(C(=O)NC5C(C)(C)C(Oc6ccc(C#N)c(Cl)c6)C5(C)C)cc4)CC3)CC2)c2ccc(-c3scnc3C)cc2)C(C)C)on1` (stereo partly drawn) [ARD-61, reference compound], the IC50 was 800 nM in assay [2] (setting [7]) and greater than 30000 nM in the assay with 22Rv1 AUR-3 cells (setting [7]). The “sensitivity of AUR-3 cells versus WT” value in the assay with 22Rv1 AUR-3 cells (22Rv1 AUR-3 cells (Fig. S5 E and F)) is listed as “dramatically less sensitive”.
Regarding `Cc1ncsc1-c1ccc([C@H](C)NC(=O)[C@@H]2C[C@@H](O)CN2C(=O)[C@@H](NC(=O)CN2CCN(c3cc(-c4ccccc4O)nnc3N)CC2)C(C)(C)C)cc1` [AU-15330], the “degradation of target proteins in tumors, immunoblot” value in assay [3] was “unable to degrade any of its target proteins alone”. Further, the “tumor response as a single agent” value in assay [4] is listed as “more modest effects as a single agent”. Besides, the “ability to cause a decrease in cell viability” value with 22Rv1 AUR-2 cells was “unable”. The IC50 was found to be 2.3 nM in assay [2] (setting [8]); 40.7 nM in assay [2] (Homo sapiens, 22Rv1, Fig. S5F); 48.9 nM in assay [2] (setting [9]); 45.5 nM in assay [2] (setting [10]); 28500 nM in the assay with 22Rv1 AUR-3 cells (setting [8]); 20500 nM with 22Rv1 AUR-3 cells (Homo sapiens, 22Rv1, Fig. S5F). Moreover, the values for the IC50 with 22Rv1 AUR-3 cells (setting [9]) and in the assay on 22Rv1 AUR-3 cells (setting [10]) were 990 nM and greater than 30000 nM, respectively. In addition, in assay [5], the “degradation of SMARCA2 and PBRM1, immunoblot” value was “able to degrade SMARCA2 and PBRM1”. Also, in assay [5], the “degradation of SMARCA4, immunoblot” value is “unable to degrade SMARCA4”. In addition, the “degradation of overexpressed mutant SMARCA4, immunoblot” value in assay [6] is recorded as “resistant to degradation”.
